What was measured:
Test in all cases: Field trial in flooded transplanted rice, % visual weed control
Format in all cases: in vivo
[1] = tested on: Echinochloa crus-galli (barnyard grass, ECHCG); details: 42 days
Excerpt: (§1) The (a) penoxsulam or an agriculturally acceptable salt thereof is mixed with or applied in combination with (b) mefenacet or an agriculturally acceptable salt thereof in an amount sufficient to induce a synergistic herbicidal effect. […] As described in the Herbicide Handbook of the Weed Science Society of America, Ninth Edition, 2007, p. 429, ′″synergism′ [is] an interaction of two or more factors such that the effect when combined is greater than the predicted effect based on the response to each factor applied separately.” Synergistic in the herbicide context can mean that the use of (a) and (b) as defined above results in an increased weed control effect compared to the weed control effects that are possible with the use of (a) or (b) alone. In some embodiments, the damage or injury to the undesired vegetation caused by the compositions and methods disclosed herein is evaluated using a scale from 0% to 100%, when compared with the untreated control vegetation, wherein 0% indicates no damage to the undesired vegetation and 100% indicates complete destruction of the undesired vegetation. […] 22 (1967)
(§2) Field trials were conducted in Japan with applications made in the area of naturally occurring weed populations. All treatments were applied using a randomized complete block trial design, with 3 replications per treatment. Plot size was 2 meters (m)×2 m (width×length), with each plot being a separate entity and flooded with water. Rice was transplanted into the plots, and the rice crop was maintained as a normal commercial crop with appropriate fertilizer and maintenance treatments as needed. Rice size at application varied from 4 leaf to 2 tiller stage, and weeds were 1 to 5 leaf stage. All plots were maintained flooded to 3 to 6 centimeter (cm) depth and treatments were applied by hand directly into the flooded plots containing the rice and weeds.
(§3) Treatments consisted of penoxsulam and mefenacet, applied alone or in combination. Penoxsulam was applied as a granule formulation (3.5 grams of active ingredient per kilogram (g ai/kg) granule (GR)) applied directly into the flooded plots, or as a liquid formulation (31 grams of active ingredient per liter (g ai/L) emulsifiable concentrate (EC)) mixed in 1 liter (L) of solution and applied into the flooded plots. Mefenacet, as the commercial product HINOCHLOA® containing 40 g ai/kg GR, was applied directly into the flooded plots.
(§4) The treated plots and control plots were rated blind at various intervals after application. Ratings were based on a scale of 0-100%, as discussed above, wherein 0% indicates complete growth of the undesired vegetation and 100% indicates complete prevention of the undesired vegetation.
(§5) Colby's equation was used to determine the herbicidal effects expected from the mixtures, as described above. The results were measured at the evaluation intervals provided in Table 1 after the application of the compositions (penoxsulam and mefenacet, applied alone or in combination). […] The herbicide tank mix combinations tested, application rates and ratios employed, plant species tested, and results are included in Table 1 below.

[2] = tested on: Eleocharis kuroguwai (kuro-guwai, ELOKU)
Excerpt: as §1, §2, §3, §4, §5

[3] = tested on: Lindernia procumbens (common false pimpernel, LIDPY); details: for Penoxsulam Mean % weed control: 18 g ai/ha
Excerpt: as §1, §2, §3, §4, §5

[4] = tested on: Sagittaria pygmaea (dwarf arrowhead, SAGPY); details: 44 days
Excerpt: as §1, §2, §3, §4, §5

SMILES: CN(C(=O)COc1nc2ccccc2s1)c1ccccc1 [Mefenacet, 2-(2-benzothiazolyloxy)-N-methyl-N-phenylacetamide]
- Mefenacet Mean % weed control ([1]; 750 g ai/ha): 40%
- Mefenacet Mean % weed control ([2]; 34 days, 500 g ai/ha): 0%
- Mefenacet Mean % weed control ([2]; 34 days, 750 g ai/ha): 0%
- Mefenacet Mean % weed control ([2]; 34 days, 1000 g ai/ha): 0%
- Mefenacet Mean % weed control ([2]; 44 days, 1000 g ai/ha): 23%
- Mefenacet Mean % weed control ([2]; 52 days, 750 g ai/ha): 33%
- Mefenacet Mean % weed control ([2]; 52 days, 1000 g ai/ha): 20%
- Mefenacet Mean % weed control ([2]; 61 days, 1000 g ai/ha): 0%
- Mefenacet Mean % weed control ([3]; 18 days, 500 g ai/ha): 43%
- Mefenacet Mean % weed control ([3]; 18 days, 750 g ai/ha): 50%
- Mefenacet Mean % weed control ([3]; 18 days, 1000 g ai/ha): 57%
- Mefenacet Mean % weed control ([3]; 23 days, 500 g ai/ha): 0%
- Mefenacet Mean % weed control ([3]; 23 days, 750 g ai/ha): 27%
- Mefenacet Mean % weed control ([3]; 24 days, 500 g ai/ha): 0%
- Mefenacet Mean % weed control ([3]; 42 days, 500 g ai/ha): 0%
- Mefenacet Mean % weed control ([4]; 500 g ai/ha): 0%
- Mefenacet Mean % weed control ([4]; 750 g ai/ha): 0%

SMILES: COc1cnc(OC)n2nc(NS(=O)(=O)c3c(OCC(F)F)cccc3C(F)(F)F)nc12 [Penoxsulam]
- Penoxsulam Mean % weed control ([1]; 18 g ai/ha): 81%
- Penoxsulam Mean % weed control ([2]; 34 days, 18 g ai/ha): 62%
- Penoxsulam Mean % weed control ([2]; 44 days, 70 g ai/ha): 81%
- Penoxsulam Mean % weed control ([2]; 52 days, 18 g ai/ha): 34%
- Penoxsulam Mean % weed control ([2]; 52 days, 35 g ai/ha): 62%
- Penoxsulam Mean % weed control ([2]; 52 days, 70 g ai/ha): 71%
- Penoxsulam Mean % weed control ([2]; 61 days, 35 g ai/ha): 49%
- Penoxsulam Mean % weed control ([2]; 61 days, 70 g ai/ha): 61%
- Penoxsulam Mean % weed control ([3]; 18 days): 73%
- Penoxsulam Mean % weed control ([3]; 23 days): 87%
- Penoxsulam Mean % weed control ([3]; 24 days): 86%
- Penoxsulam Mean % weed control ([3]; 42 days): 83%
- Penoxsulam Mean % weed control ([4]; 35 g ai/ha): 82%
